One assay concerns SNU449-TM4SF5 cells. Description: Western blotting of NK cell stimulatory ligands. In kind it is cell-based, human. The following applies: SNU449-TM4SF5, given concentration, 24 hours (FIG. 13c). On the procedure:
(§1) Cell extracts were obtained from cells grown to a density of 70-80% without any treatment, or from cells treated with vehicle DMSO or drugs at the given concentrations for 24 hours. For the extract of hepatocytes or liver cancer cells, a lysis buffer (150 mM NaCl, 1% NP-40, 50 mM Tris-HCl, 0.25% sodium deoxycholate, pH 7.4) including a protease inhibitor cocktail (GenDEPOT) was used. In addition, after washing animal liver tissue twice with PBS, SDS, Na3VO4, and protease inhibitor cocktails (GenDEPOT) were added to a lysis buffer [50 mM Tris-HCl, pH 7.4, 1% NP40, 0.25% sodium deoxycholate, 150 mM NaCl, 1 mM EDTA (based on 500 ml)], followed by treatment at 4°C for 15 minutes. […] After quantification using BCA reagent (Thermo Scientific), a 4 × sample buffer [100% glycerol 4 ml, Tris-HCl, pH 6.8, 2.4 ml, SDS 0.8 g, Bromophenol blue 4 mg, betamercaptoethanol 0.4 ml, H2O 3.1 ml (based on 10 ml)] was added, followed by boiling at 100°C for 5 minutes. […]
(§2) After 24 hours, vehicle DMSO, drug ST-1-025, or ST-5-002 was treated at the given concentrations. […] (f) After treating NK92-EV or NK92-TM4SF5 cells with DMSO or drugs ST-2-001 (1 nM), ST-3-005 (10 nM or 1 µM), ST-5-001, or ST-5-002 (100 nM or 1 µM) for 24 hours, the expression of SLAMF7 expressed on the cell surface was analyzed through immunostaining using flow cytometry. […]

The next assay deals with SNU761-EV cells. Description: Western blotting of SLAMF7 expression, control SNU761 cells. In kind it is cell-based, human. The following applies: SNU761-EV (FIG. 13d). On the procedure:
as §1, §2
For orientation: In western blotting, separated proteins are transferred to a membrane and probed.

With `COc1ccc(-c2cc(-c3ccc(N)cc3)no2)cc1` [ST-1-025, 4-(5-(4-methoxyphenyl)isoxazole-3-yl)aniline], in the assay with SNU449-TM4SF5 cells, the “expression of the stimulatory ligands (MICA/B, SLAMF6, and SLAMF7)” value is “increased again”.
Regarding `Cc1ccc(C(=O)Nc2ccc(-c3cc(-c4ccc(O)cc4)no3)cc2)cc1` [ST-5-002, N-(4-(3-(4-hydroxyphenyl)isoxazole-5-yl)phenyl)-4-methylbenzamide], the “expression of SLAMF7” value in the assay with SNU761-EV cells is reported as “lowered”.

The values are drawn from patent EP4772500A1, “NOVEL ISOXAZOLE COMPOUND AS TM4SF5-SPECIFIC INHIBITOR AND USE THEREOF” (Seoul National University R&DB Foundation, priority 2023, dated 2025).
